According to ChEMBL document CHEMBL1201862, “PubChem BioAssay data set” (2004):
Activity calls are given as the source filed them.

Tests used:
[1] = biological target: T1, Tyrosine-protein phosphatase non-receptor type 11 (Homo sapiens, UniProt Q06124); assay: SHP2 phosphatase inhibition, dose response, selectivity assay for STEP inhibitor project, biochemical (AID 602367); format: functional; conditions: read-out: IC50_Mean
T1 sequence (Q06124 whole entry): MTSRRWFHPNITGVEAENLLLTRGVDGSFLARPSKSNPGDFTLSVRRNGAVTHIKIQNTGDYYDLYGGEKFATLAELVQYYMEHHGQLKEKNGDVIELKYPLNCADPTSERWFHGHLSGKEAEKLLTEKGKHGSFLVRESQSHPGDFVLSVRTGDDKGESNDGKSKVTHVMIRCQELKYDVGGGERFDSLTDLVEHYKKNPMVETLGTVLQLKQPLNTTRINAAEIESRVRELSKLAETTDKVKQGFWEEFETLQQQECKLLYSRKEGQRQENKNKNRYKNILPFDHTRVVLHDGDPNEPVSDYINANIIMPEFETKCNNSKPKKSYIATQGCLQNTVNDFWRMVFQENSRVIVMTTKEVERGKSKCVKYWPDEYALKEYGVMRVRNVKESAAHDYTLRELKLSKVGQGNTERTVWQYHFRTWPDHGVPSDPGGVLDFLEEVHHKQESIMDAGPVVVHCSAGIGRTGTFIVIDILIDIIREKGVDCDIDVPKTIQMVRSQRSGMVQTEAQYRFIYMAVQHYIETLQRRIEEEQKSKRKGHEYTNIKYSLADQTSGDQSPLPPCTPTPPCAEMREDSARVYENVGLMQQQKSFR

[2] = biological target: T2, Tyrosine-protein phosphatase non-receptor type 22 (Homo sapiens, UniProt Q9Y2R2); format: functional;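 also: confirmatory dose-response retesting of primary uHTS hits against LYP; potency is for inhibition of phosphatase activity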
T2 sequence (Q9Y2R2 whole entry): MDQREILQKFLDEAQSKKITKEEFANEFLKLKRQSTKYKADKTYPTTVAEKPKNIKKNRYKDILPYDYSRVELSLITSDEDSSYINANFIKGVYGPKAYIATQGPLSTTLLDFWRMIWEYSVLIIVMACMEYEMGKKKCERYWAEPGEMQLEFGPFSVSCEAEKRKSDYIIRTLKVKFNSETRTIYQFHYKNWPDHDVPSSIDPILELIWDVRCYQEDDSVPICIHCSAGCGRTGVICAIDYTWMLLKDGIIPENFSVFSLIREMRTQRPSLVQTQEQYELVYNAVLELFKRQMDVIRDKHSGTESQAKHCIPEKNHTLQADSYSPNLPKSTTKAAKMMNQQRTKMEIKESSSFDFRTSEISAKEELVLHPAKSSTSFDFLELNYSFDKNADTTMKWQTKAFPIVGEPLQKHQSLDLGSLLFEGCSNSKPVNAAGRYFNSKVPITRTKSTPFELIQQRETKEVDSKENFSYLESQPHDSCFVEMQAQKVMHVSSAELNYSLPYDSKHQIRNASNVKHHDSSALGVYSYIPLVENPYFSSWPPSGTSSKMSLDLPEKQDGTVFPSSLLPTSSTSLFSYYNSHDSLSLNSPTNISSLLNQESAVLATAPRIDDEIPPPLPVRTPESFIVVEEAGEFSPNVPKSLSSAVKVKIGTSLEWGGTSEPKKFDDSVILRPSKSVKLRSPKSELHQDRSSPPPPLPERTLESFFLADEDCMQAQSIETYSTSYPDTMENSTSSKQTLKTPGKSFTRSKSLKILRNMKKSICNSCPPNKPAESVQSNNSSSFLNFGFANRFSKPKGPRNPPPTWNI

[3] = biological target: T3, Tyrosine-protein phosphatase non-receptor type 7 (Homo sapiens, UniProt P35236); format: functional
T3 sequence (P35236 whole entry): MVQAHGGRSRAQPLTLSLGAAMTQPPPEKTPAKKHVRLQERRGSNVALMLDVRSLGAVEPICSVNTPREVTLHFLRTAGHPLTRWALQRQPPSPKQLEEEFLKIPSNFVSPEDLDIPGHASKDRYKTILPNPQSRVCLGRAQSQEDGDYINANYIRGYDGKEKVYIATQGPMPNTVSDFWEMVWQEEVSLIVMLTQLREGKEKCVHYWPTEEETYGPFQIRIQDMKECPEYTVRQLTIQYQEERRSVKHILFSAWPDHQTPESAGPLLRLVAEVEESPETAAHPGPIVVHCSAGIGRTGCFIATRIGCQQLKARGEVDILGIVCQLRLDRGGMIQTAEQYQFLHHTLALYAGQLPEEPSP

[4] = biological target: Dual specificity protein phosphatase 3 (Homo sapiens, UniProt P51452); assay: SAR VHR1 absorbance Assay for In Vitro dose response studies. [Related pubchem assays (depositor defined):AID1654, AID1661, AID1878, AID1992, AID2004]
Dual specificity protein phosphatase 3, sequence (P51452 whole entry): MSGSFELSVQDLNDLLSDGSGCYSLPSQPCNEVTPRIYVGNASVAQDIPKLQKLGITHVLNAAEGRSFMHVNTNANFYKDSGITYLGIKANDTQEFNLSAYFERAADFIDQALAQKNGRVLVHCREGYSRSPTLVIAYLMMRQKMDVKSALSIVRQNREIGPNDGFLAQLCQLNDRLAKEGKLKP

[5] = biological target: T2, Tyrosine-protein phosphatase non-receptor type 22; assay: PTPN22 phosphatase inhibition, dose response, selectivity assay for STEP inhibitor project, biochemical (AID 624241); format: functional
[6] = biological target: Prothrombin (Bos taurus, UniProt P00735); assay: thrombin inhibition, dose response, biochemical, fluorescence polarization, uHTS hits (AID 602369); format: functional
[7] = test system: HEK293; assay: HEK cell cytotoxicity by LDH release, dose response, cytotoxicity control for IDE activator project, fluorescence, HEK cells (AID 588440); format: functional, cell-based; conditions: Homo sapiens;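 also: cytotoxicity by LDH release measuring loss of membrane integrity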
[8] = test system: HEK293; assay: optical interference in Abeta FP readout, dose response, artefact control for IDE activator project, biochemical, fluorescence polarization (AID 588442); format: functional, cell-based; conditions: Homo sapiens
[9] = biological target: Voltage-dependent T-type calcium channel subunit alpha-1H (Homo sapiens, UniProt O95180); format: functional;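 also: channel activity triggered by adding a high calcium stimulation buffer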
Voltage-dependent T-type calcium channel subunit alpha-1H, sequence (O95180 whole entry): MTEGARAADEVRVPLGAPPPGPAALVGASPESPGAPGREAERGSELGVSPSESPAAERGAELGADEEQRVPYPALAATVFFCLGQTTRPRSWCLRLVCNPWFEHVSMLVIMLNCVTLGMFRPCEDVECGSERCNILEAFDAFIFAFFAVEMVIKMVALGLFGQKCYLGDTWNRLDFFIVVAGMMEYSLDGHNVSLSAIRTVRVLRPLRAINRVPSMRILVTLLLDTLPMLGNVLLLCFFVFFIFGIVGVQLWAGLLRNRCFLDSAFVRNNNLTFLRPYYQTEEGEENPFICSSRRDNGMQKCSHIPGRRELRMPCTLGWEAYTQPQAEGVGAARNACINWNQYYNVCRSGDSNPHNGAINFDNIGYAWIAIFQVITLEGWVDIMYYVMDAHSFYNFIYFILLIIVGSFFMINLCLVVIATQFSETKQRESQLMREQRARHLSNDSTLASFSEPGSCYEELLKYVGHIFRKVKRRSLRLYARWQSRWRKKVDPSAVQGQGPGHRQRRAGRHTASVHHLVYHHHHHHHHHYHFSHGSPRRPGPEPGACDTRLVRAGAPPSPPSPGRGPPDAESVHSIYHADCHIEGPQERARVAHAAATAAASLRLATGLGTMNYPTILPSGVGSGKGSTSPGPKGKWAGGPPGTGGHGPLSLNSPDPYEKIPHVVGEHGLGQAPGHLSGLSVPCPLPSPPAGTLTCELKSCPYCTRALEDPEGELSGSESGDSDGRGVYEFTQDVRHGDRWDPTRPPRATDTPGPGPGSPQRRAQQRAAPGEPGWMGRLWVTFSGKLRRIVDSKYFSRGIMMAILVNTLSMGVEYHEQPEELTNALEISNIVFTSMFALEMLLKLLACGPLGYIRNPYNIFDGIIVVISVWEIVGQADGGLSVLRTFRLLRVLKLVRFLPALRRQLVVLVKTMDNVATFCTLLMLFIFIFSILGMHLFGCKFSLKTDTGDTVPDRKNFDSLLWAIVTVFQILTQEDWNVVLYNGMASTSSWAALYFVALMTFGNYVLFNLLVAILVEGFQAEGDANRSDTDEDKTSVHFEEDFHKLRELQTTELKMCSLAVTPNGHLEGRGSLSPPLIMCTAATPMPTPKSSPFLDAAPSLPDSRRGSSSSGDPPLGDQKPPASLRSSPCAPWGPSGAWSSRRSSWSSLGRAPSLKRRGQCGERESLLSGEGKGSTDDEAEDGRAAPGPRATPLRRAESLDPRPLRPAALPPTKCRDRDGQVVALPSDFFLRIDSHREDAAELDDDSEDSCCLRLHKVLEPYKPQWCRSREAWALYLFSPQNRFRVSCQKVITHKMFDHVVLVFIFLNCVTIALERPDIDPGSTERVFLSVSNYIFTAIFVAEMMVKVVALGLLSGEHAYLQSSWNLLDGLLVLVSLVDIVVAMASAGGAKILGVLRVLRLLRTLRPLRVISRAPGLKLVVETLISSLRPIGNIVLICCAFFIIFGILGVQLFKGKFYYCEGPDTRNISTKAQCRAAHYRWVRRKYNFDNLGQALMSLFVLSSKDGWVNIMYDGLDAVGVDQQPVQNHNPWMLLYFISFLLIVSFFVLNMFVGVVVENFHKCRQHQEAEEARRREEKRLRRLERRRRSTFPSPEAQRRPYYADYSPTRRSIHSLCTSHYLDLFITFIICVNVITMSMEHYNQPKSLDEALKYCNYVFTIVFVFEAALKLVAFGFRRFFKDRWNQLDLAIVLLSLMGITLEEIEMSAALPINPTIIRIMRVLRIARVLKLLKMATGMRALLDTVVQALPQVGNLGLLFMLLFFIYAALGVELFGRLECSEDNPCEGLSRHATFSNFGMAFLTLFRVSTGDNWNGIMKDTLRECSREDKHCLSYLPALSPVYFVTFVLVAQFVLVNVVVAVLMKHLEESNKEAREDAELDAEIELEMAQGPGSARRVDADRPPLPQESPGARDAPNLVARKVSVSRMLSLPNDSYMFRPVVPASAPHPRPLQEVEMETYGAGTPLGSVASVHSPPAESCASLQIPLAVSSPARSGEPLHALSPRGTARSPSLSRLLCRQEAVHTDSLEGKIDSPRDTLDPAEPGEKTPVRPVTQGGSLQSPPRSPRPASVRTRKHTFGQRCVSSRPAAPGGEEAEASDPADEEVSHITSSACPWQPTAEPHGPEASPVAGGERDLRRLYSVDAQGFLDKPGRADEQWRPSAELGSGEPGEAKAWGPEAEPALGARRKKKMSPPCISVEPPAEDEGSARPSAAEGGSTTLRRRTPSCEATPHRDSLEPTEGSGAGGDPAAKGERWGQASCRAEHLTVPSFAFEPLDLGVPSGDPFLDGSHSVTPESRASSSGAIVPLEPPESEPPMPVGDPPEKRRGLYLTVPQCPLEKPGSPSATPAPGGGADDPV

[10] = biological target: T4, SUMO-activating enzyme (Homo sapiens, UniProt Q9UBT2); assay: inhibitors of in vitro SUMOylation cascade, primary screen, biochemical, HTRF, uHTS (AID 2006); format: protein-complex assay
T4 sequence (Q9UBE0 whole entry): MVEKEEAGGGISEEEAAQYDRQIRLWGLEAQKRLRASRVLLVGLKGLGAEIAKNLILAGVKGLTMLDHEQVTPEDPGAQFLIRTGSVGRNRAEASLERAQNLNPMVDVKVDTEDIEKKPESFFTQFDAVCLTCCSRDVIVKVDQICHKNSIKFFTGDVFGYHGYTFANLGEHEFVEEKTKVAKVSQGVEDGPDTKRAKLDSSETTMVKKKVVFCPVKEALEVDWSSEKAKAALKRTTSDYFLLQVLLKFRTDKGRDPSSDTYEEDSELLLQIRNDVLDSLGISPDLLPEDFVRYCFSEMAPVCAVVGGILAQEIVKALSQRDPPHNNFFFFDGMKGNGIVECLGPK
T4 sequence (Q9UBT2 whole entry): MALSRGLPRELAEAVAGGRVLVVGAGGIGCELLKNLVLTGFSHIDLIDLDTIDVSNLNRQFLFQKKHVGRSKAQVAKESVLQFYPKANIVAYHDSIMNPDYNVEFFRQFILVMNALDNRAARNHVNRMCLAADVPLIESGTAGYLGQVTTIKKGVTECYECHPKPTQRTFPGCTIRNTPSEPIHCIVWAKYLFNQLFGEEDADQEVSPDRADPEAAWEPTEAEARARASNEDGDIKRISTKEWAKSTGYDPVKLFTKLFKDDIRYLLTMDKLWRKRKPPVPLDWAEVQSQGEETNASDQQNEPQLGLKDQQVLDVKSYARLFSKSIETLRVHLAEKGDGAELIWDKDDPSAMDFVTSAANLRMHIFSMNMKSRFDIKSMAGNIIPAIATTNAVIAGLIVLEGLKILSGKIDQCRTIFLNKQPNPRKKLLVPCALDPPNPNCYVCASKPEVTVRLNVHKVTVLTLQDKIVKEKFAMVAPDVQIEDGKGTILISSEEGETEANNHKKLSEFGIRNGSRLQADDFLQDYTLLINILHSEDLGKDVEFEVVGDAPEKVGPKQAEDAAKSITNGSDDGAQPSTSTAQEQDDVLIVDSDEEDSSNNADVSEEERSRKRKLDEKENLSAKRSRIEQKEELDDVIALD

[11] = biological target: T4, SUMO-activating enzyme; assay: SUMOylation inhibitor hit validation, confirmation, SUMOylation inhibitor project, biochemical, AlphaScreen (AID 2018); format: functional
[12] = biological target: Serine/threonine-protein phosphatase PP1-alpha catalytic subunit (Homo sapiens, UniProt P62136); assay: PP1 phosphatase inhibitors, dose response, biochemical, fluorescence (AID 2394)
Serine/threonine-protein phosphatase PP1-alpha catalytic subunit, sequence (P62136 whole entry): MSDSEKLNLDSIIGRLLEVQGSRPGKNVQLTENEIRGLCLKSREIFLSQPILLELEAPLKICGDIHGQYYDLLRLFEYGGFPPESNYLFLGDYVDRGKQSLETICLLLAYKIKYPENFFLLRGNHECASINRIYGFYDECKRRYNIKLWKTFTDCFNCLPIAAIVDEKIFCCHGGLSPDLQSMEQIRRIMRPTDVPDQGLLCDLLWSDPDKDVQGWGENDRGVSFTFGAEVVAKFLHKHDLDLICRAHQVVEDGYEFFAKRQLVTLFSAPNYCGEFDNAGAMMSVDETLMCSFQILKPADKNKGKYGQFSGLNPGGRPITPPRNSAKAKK

CCOC(=O)c1sc2nc3c(SCC(=O)O)cc(C(=O)c4ccccc4O)cn3c(=O)c2c1C
active: IC50 [1] 1080 nM | IC50 [2] < 1240 nM | IC50 [3] < 1240 nM | IC50 [4] 1240 nM | IC50 [5] 1160 nM | IC50 [6] 56600 nM

O=c1oc2c(O)cccc2cc1-c1nc2ccccc2[nH]1
inactive: IC50 [7] > 89300 nM | EC50 [8] > 54700 nM

C=CCn1c(NC(=O)c2ccccc2Cl)c(C#N)c2nc3ccccc3nc21
active: EC50 [9] 4230 nM | IC50 [10] 2630 nM | IC50 [11] 860 nM
43600 nM (not active): IC50 [12]
